What was measured:
DED mice = experiment: Corneal fluorescein staining / clinical signs in experimental dry eye murine model; assay type: in vivo, mouse; conditions: for Clinical signs of DED / disease severity: anti-VEGF-C-treated vs untreated (saline) group, daily i.p.
Source text: (§1) Eight to ten week-old female C57BLI6 mice (Charles River Laboratory, Wilmington, Mass.) were used in accordance with the standards in the ARVO Statement for the Use of Animals in Ophthalmic and Vision Research. The research protocol was approved by the Schepens Eye Research Institute Animal Care and Use Committee. Dry eye was induced in murine eyes using a Controlled Environment Chamber (CEC) which exposes the mice to high-flow desiccated air. To achieve maximum ocular surface dryness, the conditions in CEC were supplemented with topical application of 1% atropine sulfate (Falcon Pharma, Fort Worth, Tex.) twice for the first 48 hours and subcutaneous injections of 0.1 ml of 5 mg/ml of scopolamine hydrobromide (Sigma-Aldrich, St. Louis, Mo.) three times a day, for the entire duration of the experiment.
(§2) Anti-VEGF-C antibodies (VGX-100; Vegenics Limited, Australia) were administered intraperitonealy daily from day 1 to day 10 to DED mice. Mice were assessed clinically using corneal fluorescent staining. Tissues from cornea, conjunctiva and draining lymph nodes were examined for cellular and molecular pathological changes.
Corneal lymphatics play an important role in mediating the corneal inflammation in dry eyes. Experiments: To validate this, inhibition of corneal neolymphangiogenesis was performed in a well characterized mouse model of DED described above. To see if inhibition of corneal neolymphangiogenesis could decrease ocular surface inflammation, anti-VEGF-C antibodies were administered i.p. daily from day −1 to day 10 to DED mice and assessed clinically using corneal fluorescein staining.
Methods (as described previously): Induction of Dry Eye Disease. Experimental Dry Eye Murine Model. Assessment of Corneal Surface: Corneal Fluorescein Staining. Immunohistochemistry: Monocyte/macrophage marker—CD11b; Pan-endothelial marker—CD31; Lymphatic endothelial marker—LYVE-1; Blood vessels: CD31^hi/LYVE-1; Lymph vessels: CD31^lo/LYVE-l^hi. Morphometry of Lymphangiogenesis: Automated image analysis program written using Mat lab. Lymphatic Area (LA)—total surface area of the lymphatic vessels when projected into the plane of the image. Lymphatic Caliber (LC)—measure of the diameters of the lymphatic vessels.
Anti-VEGF-C antibody and treatment regimen. Experimental design: Three groups: Normal, DE group treated with IP normal Saline (Untreated) and DE group treated with anti-VEGF-C antibody (VGX-100; a gift from Vegenics, Australia). Daily IP application of anti-VEGF-C antibody/Normal saline from day −1 to day 13. Dose: […] (20 mg/kg) in […] of Normal Saline.

[1] = system: IL-1α, IL-1β, IL-6, IL-17; experiment: Real-time PCR of proinflammatory cytokines in conjunctiva of DED mice; assay type: in vivo, mouse
Source text: as §1
(§3) Five mice (10 eyes) were included in each group. Two corneas were pooled together to equal as one sample and stored at −80° C. in Trizol (Invitrogen, Carlsbad, Calif.; catalog No. 15596026) until future use. Total RNA was isolated from these corneas using the RNeasy microkit (Qiagen, Valencia, Calif.; catalog No. 74004). Equal amounts of RNA were used to synthesize cDNA using SuperScript™ III Reverse Trancriptase (Invitrogen, Carlsbad, Calif.; catalog No. 18080) according to the manufacturer's recommendations. Real-Time PCR was performed using FAM-MGB dye labeled predesigned primers (Applied Biosystem, Foster City, Calif.) for GAPDH (assay ID.Mm999999 15_gl), VEGF-A (Mm00437304_ml), VEGF-C (Mrn00437313_ml), VEGF-D (Mm00438965_ml), VEGFR-2 (Mm00440099_ml), VEGFR-3 (Mm00433337_ml). 2.5 μl of cDNA was loaded in each well and assays were performed in duplicate. The GAPDH gene was used as the endogenous reference for each reaction. The results were normalized by the cycle threshold (CT) of GAPDH and the relative mRNA level in the normal mice was used as the normalized control.
as §2
(§4) Real time PCR was performed to quantify expression of different VEGF growth factors (VEGF-A, VEGF-C, VEGF-D) and their receptors (VEGFR-2, VEGFR-3) in the cornea at days 6, 10 and 14 (FIG. 8) and to determine the levels of proinflammatory cytokines.

[2] = system: IL-17 (Th17 cells) and IFN-γ (Th1 cells); experiment: Real-time PCR of inflammatory cytokines in draining lymph nodes of DED mice; assay type: in vivo, mouse; conditions: treated vs untreated DED mice
Source text: as §1
Five mice (10 eyes) were included in each group. […]
(§5) Anti-VEGF-C antibodies (VGX-100; Vegenics Limited, Australia) were administered intraperitonealy daily from day 1 to day 10 to DED mice. Mice were assessed clinically using corneal fluorescent staining. […]
as §4

CD11b+ cells = experiment: Enumeration of CD11b+ cells in DED corneas (immunohistochemistry); assay type: in vivo, mouse
Source text: (§6) Eight to ten week-old female C57BLI6 mice (Charles River Laboratory, Wilmington, Mass.) were used in accordance with the standards in the ARVO Statement for the Use of Animals in Ophthalmic and Vision Research. The research protocol was approved by the Schepens Eye Research Institute Animal Care and Use Committee. Dry eye was induced in murine eyes using a Controlled Environment Chamber (CEC) which exposes the mice to high-flow desiccated air. […]
(§7) Freshly excised corneas were washed in PBS, fixed in acetone for 15 minutes and then double stained with CD31 and LYVE-1 as described previously. To analyze infiltration of CD11b^+/LYVE-1 cells, corneas from three mice from each group were taken and cells were counted in 5-6 areas in the periphery ([…] area from the limbus) of each cornea in a masked fashion, using epifluorescence microscope (model E800; Nikon, Melville, N.Y.) at 40× magnification. The mean number of cells was obtained by averaging the total number of cells in all the areas studied and the result was expressed as the number of positive cells per mm^2.
as §5

corneal lymphatics = experiment: Corneal lymphangiogenesis in DED mice (CD31/LYVE-1 staining, morphometry); design: species or system mouse; conditions: in vivo blockade of VEGF-C
Source text: as §6, §7
Morphology of lymphatics was analyzed using an automated image analysis program written with Matlab (The Mathworks, Inc., Natick, Mass.). […] The resultant isolated lymphatic vessels were analyzed morphologically using two metrices, Lymphatic Area (LA) and Lymphatic Caliber (LC). […]

VEGF-C, -D, R3 = experiment: Real-time PCR of pro-lymphangiogenic growth factors and receptors in DE corneas; assay type: in vivo, mouse; conditions: DED mice, VEGF-C blockade
Source text: as §1
as §3, with “The results were normalized by the cycle threshold (CT) of GAPDH and the relative mRNA level in the normal mice was used as the normalized control.” left out
as §4

[3] = DED mice, VEGF-C blockade (summary)

In the case of “VGX-100: human anti-VEGF-C monoclonal antibody produced by hybridoma ATCC PTA-4095; heavy/light chains SEQ ID NO: 34/35; from Vegenics”, the Corneal epitheliopathy (DED mice; VEGF-C blockade) is reported as “decrease”, the “Clinical signs of DED / disease severity” value (DED mice) is reported as “ameliorates clinical signs of DED” and the “Clinical signs of DED / disease severity” value (DED mice; listed as anti-VEGF-C) is reported as “significant decrease in disease severity”. The “Clinical signs of DED / disease severity” value (DED mice; listed as anti-VEGF-C Ab) was “ameliorates clinical signs of DED”, the “Corneal fluorescein staining (CFS) score” value (DED mice; days 5, 9 and 13, vs untreated group, daily IP 400 µg (20 mg/kg) in 100 µl saline) was “significantly decreased” and the “mRNA expression levels of proinflammatory cytokines in the conjunctiva” value [1, 3] was “decrease”. For the same substance, the “IL-1α expression in conjunctiva (real-time PCR)” value ([1]; treated vs untreated DED mice) was “significantly decreased expression”, the “IL-1β expression in conjunctiva (real-time PCR)” value ([1]; treated vs untreated DED mice) was “significantly decreased expression” and the “IL-6 expression in conjunctiva (real-time PCR)” value ([1]; treated vs untreated DED mice) was “significantly decreased expression”. The “IL-17 expression in conjunctiva (real-time PCR)” value ([1]; treated vs untreated DED mice) was “significantly decreased expression”, the “Induction of T-cell mediated autoimmune response in draining lymph nodes (IL-17, IFN-γ by real-time PCR)” value [2] was “significantly decreased induction” and the “Decrease of infiltration of CD11b+ cells in DED corneas” value (CD11b+ cells; DED corneas, day 14) was 30%. For the same substance, the “Corneal infiltration of CD11b+ cells” value (CD11b+ cells; [3]) was “decrease”, the “Corneal lymphangiogenesis / lymphatic growth” value (corneal lymphatics) was “suppresses corneallymphangiogenesis” and the “Corneal lymphangiogenesis / lymphatic growth” value (corneal lymphatics; listed as anti-VEGF-C) was “suppression of lymphatic growth”. The “Expression of VEGF-C in DE corneas” value (VEGF-C, -D, R3) was “decrease”, the “Expression of VEGF-D in DE corneas” value (VEGF-C, -D, R3) was “decrease” and the “Expression of VEGFR-3 (R3) in DE corneas” value (VEGF-C, -D, R3) was “decrease”.

From US10940179B2, “Therapeutic compositions for the treatment of dry eye disease” (SCHEPENS EYE RESEARCH INSTITUTE, priority 2010, dated 2021)
